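Grown in 96-well plates, cells were treated for 48 hours with each compound at five concentrations. Insufficient inhibition: endpoint recorded as highest concentration tested. GI50 = concentration required for 50% inhibition of growth. TGI denotes the concentration required for complete inhibition of growth.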
Legend:
Assay in all cases: NCI-60 cell line screen, 48 h
HCT-15 colon = test system: HCT-15 colon
COLO 205 colon = test system: COLO 205 colon
UACC-257 melanoma = test system: UACC-257 melanoma
PC-3 prostate = test system: PC-3 prostate
DU-145 prostate = test system: DU-145 prostate
HCC-2998 colon = test system: HCC-2998 colon
SK-MEL-2 melanoma = test system: SK-MEL-2 melanoma
NCI-H226 lung = test system: NCI-H226 lung
HL-60(TB) leukemia = test system: HL-60(TB) leukemia
NCI-H460 lung = test system: NCI-H460 lung
UACC-62 melanoma = test system: UACC-62 melanoma
MCF7 breast = test system: MCF7 breast
OVCAR-5 ovarian = test system: OVCAR-5 ovarian
RXF 393 renal = test system: RXF 393 renal
SNB-75 CNS = test system: SNB-75 CNS
HT29 colon = test system: HT29 colon
K-562 leukemia = test system: K-562 leukemia
LOX IMVI melanoma = test system: LOX IMVI melanoma
IGROV1 ovarian = test system: IGROV1 ovarian
NCI-H522 lung = test system: NCI-H522 lung
MDA-MB-435 = test system: MDA-MB-435
OVCAR-4 ovarian = test system: OVCAR-4 ovarian
MALME-3M melanoma = test system: MALME-3M melanoma
CCRF-CEM leukemia = test system: CCRF-CEM leukemia
MDA-MB-231 breast = test system: MDA-MB-231 breast
OVCAR-3 ovarian = test system: OVCAR-3 ovarian
EKVX NSCLC = test system: EKVX NSCLC
A549 NSCLC = test system: A549 NSCLC
NCI-H23 lung = test system: NCI-H23 lung
SF-539 CNS = test system: SF-539 CNS
SNB-19 CNS = test system: SNB-19 CNS
M14 melanoma = test system: M14 melanoma
SN12C renal = test system: SN12C renal
ACHN renal = test system: ACHN renal
SR leukemia = test system: SR leukemia
SK-OV-3 ovarian = test system: SK-OV-3 ovarian
SW-620 colon = test system: SW-620 colon
786-0 renal = test system: 786-0 renal
SK-MEL-28 melanoma = test system: SK-MEL-28 melanoma
SF-268 CNS = test system: SF-268 CNS
HOP-62 NSCLC = test system: HOP-62 NSCLC
U251 CNS = test system: U251 CNS
UO-31 renal = test system: UO-31 renal
HS 578T breast = test system: HS 578T breast
OVCAR-8 ovarian = test system: OVCAR-8 ovarian
T-47D breast = test system: T-47D breast
CAKI-1 renal = test system: CAKI-1 renal
KM12 colon = test system: KM12 colon
MDA-MB-468 breast = test system: MDA-MB-468 breast
TK-10 renal = test system: TK-10 renal
HCT-116 colon = test system: HCT-116 colon
BT-549 breast = test system: BT-549 breast
NCI/ADR-RES ovarian = test system: NCI/ADR-RES ovarian
SK-MEL-5 melanoma = test system: SK-MEL-5 melanoma
A498 renal = test system: A498 renal
HOP-92 NSCLC = test system: HOP-92 NSCLC
SF-295 CNS = test system: SF-295 CNS
RPMI-8226 leukemia = test system: RPMI-8226 leukemia
MOLT-4 leukemia = test system: MOLT-4 leukemia

COc1ccc(C2(SCCNCc3cc(N(C)C)ccn3)c3ccccc3C=Cc3ccccc32)cc1
GI50 (HCT-15 colon): 51 nM | TGI (HCT-15 colon): 13500 nM | GI50 (COLO 205 colon): 169 nM | TGI (COLO 205 colon): 521 nM | GI50 (UACC-257 melanoma): 10800 nM | TGI (UACC-257 melanoma): 23900 nM | GI50 (PC-3 prostate): 395 nM | TGI (PC-3 prostate): 6060 nM | GI50 (DU-145 prostate): 335 nM | TGI (DU-145 prostate): 3630 nM | GI50 (HCC-2998 colon): 93.2 nM | TGI (HCC-2998 colon): 527 nM | GI50 (SK-MEL-2 melanoma): 252 nM | TGI (SK-MEL-2 melanoma): 724 nM | GI50 (NCI-H226 lung): 4800 nM | TGI (NCI-H226 lung): 19200 nM | GI50 (HL-60(TB) leukemia): 62.3 nM | TGI (HL-60(TB) leukemia): 13700 nM | GI50 (NCI-H460 lung): 281 nM | TGI (NCI-H460 lung): 11200 nM | GI50 (UACC-62 melanoma): 460 nM | TGI (UACC-62 melanoma): 17700 nM | GI50 (MCF7 breast): 40 nM | TGI (MCF7 breast): 13200 nM | GI50 (OVCAR-5 ovarian): 364 nM | TGI (OVCAR-5 ovarian): 12500 nM | GI50 (RXF 393 renal): 283 nM | TGI (RXF 393 renal): 3390 nM | GI50 (SNB-75 CNS): 176 nM | TGI (SNB-75 CNS): 907 nM | GI50 (HT29 colon): 337 nM | TGI (HT29 colon): 7000 nM | GI50 (K-562 leukemia): 40.7 nM | TGI (K-562 leukemia): 17400 nM | GI50 (LOX IMVI melanoma): 557 nM | TGI (LOX IMVI melanoma): 12300 nM | GI50 (IGROV1 ovarian): 459 nM | TGI (IGROV1 ovarian): 19200 nM | GI50 (NCI-H522 lung): 90 nM | TGI (NCI-H522 lung): 455 nM | GI50 (MDA-MB-435): 25.3 nM | TGI (MDA-MB-435): 63.9 nM | GI50 (OVCAR-4 ovarian): 5150 nM | TGI (OVCAR-4 ovarian): 22000 nM | GI50 (MALME-3M melanoma): 514 nM | TGI (MALME-3M melanoma): 15800 nM | GI50 (CCRF-CEM leukemia): 106 nM | TGI (CCRF-CEM leukemia): 19300 nM | GI50 (MDA-MB-231 breast): 143 nM | TGI (MDA-MB-231 breast): 446 nM | GI50 (OVCAR-3 ovarian): 342 nM | TGI (OVCAR-3 ovarian): 12000 nM | GI50 (EKVX NSCLC): 382 nM | TGI (EKVX NSCLC): 19400 nM | GI50 (A549 NSCLC): 147 nM | TGI (A549 NSCLC): 16800 nM | GI50 (NCI-H23 lung): 463 nM | TGI (NCI-H23 lung): 13900 nM | GI50 (SF-539 CNS): 227 nM | TGI (SF-539 CNS): 594 nM | GI50 (SNB-19 CNS): 534 nM | TGI (SNB-19 CNS): 19100 nM | GI50 (M14 melanoma): 34.7 nM | TGI (M14 melanoma): 621 nM | GI50 (SN12C renal): 290 nM | TGI (SN12C renal): 15200 nM | GI50 (ACHN renal): 1900 nM | TGI (ACHN renal): 19900 nM | GI50 (SR leukemia): 57 nM | TGI (SR leukemia): > 33200 nM | GI50 (SK-OV-3 ovarian): 497 nM | TGI (SK-OV-3 ovarian): 13900 nM | GI50 (SW-620 colon): 74.6 nM | TGI (SW-620 colon): 12500 nM | GI50 (786-0 renal): 873 nM | TGI (786-0 renal): 17200 nM | GI50 (SK-MEL-28 melanoma): 5290 nM | TGI (SK-MEL-28 melanoma): 21200 nM | GI50 (SF-268 CNS): 717 nM | TGI (SF-268 CNS): 18500 nM | GI50 (HOP-62 NSCLC): 528 nM | TGI (HOP-62 NSCLC): 17900 nM | GI50 (U251 CNS): 62 nM | TGI (U251 CNS): 12100 nM | GI50 (UO-31 renal): 1760 nM | TGI (UO-31 renal): 17800 nM | GI50 (HS 578T breast): 204 nM | TGI (HS 578T breast): 1770 nM | GI50 (OVCAR-8 ovarian): 238 nM | TGI (OVCAR-8 ovarian): 15700 nM | GI50 (T-47D breast): 475 nM | TGI (T-47D breast): 18700 nM | GI50 (CAKI-1 renal): 1330 nM | TGI (CAKI-1 renal): 19200 nM | GI50 (KM12 colon): 322 nM | TGI (KM12 colon): 11700 nM | GI50 (MDA-MB-468 breast): 50.9 nM | TGI (MDA-MB-468 breast): 388 nM | GI50 (TK-10 renal): 12100 nM | TGI (TK-10 renal): 25800 nM | GI50 (HCT-116 colon): 40.4 nM | TGI (HCT-116 colon): 11600 nM | GI50 (BT-549 breast): 471 nM | TGI (BT-549 breast): 9580 nM | GI50 (NCI/ADR-RES ovarian): 205 nM | TGI (NCI/ADR-RES ovarian): 513 nM | GI50 (SK-MEL-5 melanoma): 319 nM | TGI (SK-MEL-5 melanoma): 11800 nM | GI50 (A498 renal): 11500 nM | TGI (A498 renal): 24900 nM | GI50 (HOP-92 NSCLC): 1310 nM | TGI (HOP-92 NSCLC): 6250 nM | GI50 (SF-295 CNS): 268 nM | TGI (SF-295 CNS): 14200 nM | GI50 (RPMI-8226 leukemia): 124 nM | TGI (RPMI-8226 leukemia): > 49000 nM | GI50 (MOLT-4 leukemia): 610 nM | TGI (MOLT-4 leukemia): 12000 nM

Source: PubChem BioAssay (NCI)
